Consider one compound from patent publication US7300934B2, “Benzamide nitriles” (Roche Palo Alto LLC, priority 2003, dated 2007).

A word on the melting point: it is the temperature, or range, at which the solid turns liquid.

Molecules are shown by their SMILES.

Regarding `CC(C)C[C@@H](C#N)NC(=O)[C@@H]1CCCC[C@@H]1NC(=O)c1ccc(-n2cncn2)cc1` [Compound 32, N-[(1S,2R)-2-({[(1S)-1-cyano-3-methylbutyl]amino}carbonyl)cyclohexyl]-4-(1H-1,2,4-triazol-1-yl)benzamide], the melting point lay in the range of 156 to 158.9 °C.
